From PMC9695642, “Conservation of Importin α Function in Apicomplexans: Ivermectin and GW5074 Target Plasmodium falciparum Importin α and Inhibit Parasite Growth in Culture” (International Journal of Molecular Sciences, 2022)
Several values for one entry are separate records, joined by “and”; a condition that tells them apart may be missing. Equal entries are not always repeated. Where two headings read alike, the source gives them in different places.

Legend:
P. falciparum 3D7 strain = assay: P. falciparum growth inhibition, HRP2-based sandwich ELISA; assay type: cell-based, Plasmodium falciparum
Excerpt: To test the potential antimalarial action of GW5074, we compared the activity of GW5074 to ivermectin against the asexual stages of P. falciparum parasites, using an established HRP2-based (histidine-rich protein 2) ELISA [38, 39, 40]. The assay uses a sandwich ELISA to measure HRP2 levels as an indicator of parasite growth; the clinically prescribed drug dihydroartemisinin (DHA) was used as a positive control.
Figure 6 Ivermectin and GW5074 inhibit P. falciparum parasites in culture at low µM concentrations. P. falciparum cultures (0.25% parasitemia) were treated with increasing concentrations of the indicated compounds for 72 h, after which the HRP2-based sandwich ELISA was used to measure the HRP2 levels, determined by optical density. The results shown are from a single typical experiment performed in duplicate (SD shown), representative of a series of three independent experiments (see Table 5 for pooled data).
P. falciparum 3D7 strain was cultured and maintained in human red blood cells (RBCs) using RPMI (Roswell Park Memorial Institute) 1640 medium supplemented with 0.5% Albumax (GibcoTM, Waltham, MA, USA), 50 mg/L hypoxanthine (Sigma-Aldrich, St. Louis, MO, USA), 2 g/L D-glucose (Sigma-Aldrich, St. Louis, MO, USA), 2 g/L sodium bicarbonate (Sigma-Aldrich, St. Louis, MO, USA), and 56 mg/L of gentamicin (Abbott, Chicago, IL, USA) at 37 °C in 5% CO2 in a humidified incubator, according to the standard procedures. Cultures presynchronised using 5% D-sorbitol (Sigma-Aldrich, St. Louis, MO, USA) to obtain predominantly the ring stage of the P. falciparum life cycle were used for the growth assays, as previously. DHA (a gift from IPCA Laboratories, Mumbai, India) was used as a control. Growth assays in the absence and presence of inhibitors were performed using the HRP2 sandwich horseradish peroxidase-linked immunosorbent assay that measures HRP2 levels as an indicator of growth.

PfIMPα [1] = target: T1, PfIMPα (Plasmodium falciparum, UniProt Q8IAW0); assay: AlphaScreen inhibition of PfIMPα binding to TGS1-NLS-GFP
Excerpt: (§1) Inhibitors of mammalian IMPα function are of key interest as anti-infectious agents. One of the first described is the small molecule macrocyclic lactone ivermectin, produced by the bacterium Streptomyces avermitilis, that is approved by the US Food and Drug Administration for parasitic infections. […] Chemically distinct from ivermectin, GW5074 (3-(3,5-dibromo-4-hydroxybenzyliden)-5-iodo-1,3-dihydroindol-2-one) binds to mammalian IMPα with analogous structural effects on IMPα and inhibitory effects on NLS recognition/IMPβ1 binding by IMPα [24]. […] We set out to test the activity of these inhibitors with respect to NLS binding by PfIMPα and TgIMPα, with NLS binding by MmIMPα analysed in parallel (Figure 3; Table 3). As expected, ivermectin and GW5074 inhibited MmΔIBBIMPα-SV40 T-ag with IC50 values of 5–6 µM, consistent with published data. […] The results clearly indicate that chemical inhibitors known to target mammalian IMPα can inhibit apicomplexan IMPα, underlining the structural and functional conservation of IMPα from apicomplexans to mammalian systems.
(§2) Figure 3 Ivermectin and GW5074 inhibit IMPα-NLS interaction at low micromolar concentration. AlphaScreen technology was used to determine the IC50 for inhibition by ivermectin and GW5074 binding of IMPαs (5 nM) to NLS (30 nM). Data represent the mean ± SEM for quadruplet wells from a single experiment, from a series of 3 independent experiments (see Table 3 for pooled data).
(§3) PfIMPα, TgIMPα, MmIMPα, ΔIBBMmIMPα, and MmIMPβ1 GST fusion proteins were expressed and purified essentially as previously. His-tagged T-ag-NLS-GFP, TGS1-NLS-GFP, GCN5-NLS-GFP, PfIMPα, and TgIMPα proteins were all purified using Ni^2+-affinity chromatography, as previously. Biotinylation of GST-tagged proteins was carried out using the Sulfo-NHS-Biotin reagent (Pierce, Rockford, IL, USA), as described previously. The AlphaScreen binding assay was performed as previously.

TgIMPα = TgIMPα (Toxoplasma gondii, UniProt A0A125YID0); assay: AlphaScreen inhibition of TgIMPα binding to T-ag-NLS-GFP
Excerpt: as §1, §2, §3

MmΔIBBIMPα = target: T2, MmΔIBBIMPα (Mus musculus, UniProt P52293); assay: AlphaScreen inhibition of MmΔIBBIMPα binding to T-ag-NLS-GFP
T2 construct: GST; made in house
Excerpt: as §1, §2, §3

PfIMPα:MmIMPβ1 = PfIMPα:MmIMPβ1 (Plasmodium falciparum, UniProt Q8IAW0); assay: AlphaScreen inhibition of PfIMPα binding to MmIMPβ1
Excerpt: (§4) As indicated, both ivermectin and GW5074 have been previously shown to inhibit interaction between mammalian IMPα and IMPβ1 [24, 32]. We tested their activity towards apicomplexan IMPα (Figure 4; Table 4). As previously observed, binding of MmIMPα:MmIMPβ1 was inhibited strongly by both agents, with IC50 values of c. […] Clearly, ivermectin and GW5074 are able to act on apicomplexan IMPα in analogous fashion to MmIMPα in terms of the ability to bind to IMPβ1, the results further underlining the structural and functional conservation of IMPα from apicomplexans to mammalian systems.
(§5) Figure 4 Ivermectin and GW5074 inhibit IMPα–IMPβ interaction. AlphaScreen technology was used to determine the IC50 for inhibition by ivermectin and GW5074-binding of IMPβ (30 nM) to IMPαs (30 nM). Data represent the mean ± SEM for quadruplet wells from a single experiment, from a series of three independent experiments (see Table 4 for pooled data).
as §3

TgIMPα:MmIMPβ1 = TgIMPα:MmIMPβ1 (Toxoplasma gondii, UniProt A0A125YID0); assay: AlphaScreen inhibition of TgIMPα binding to MmIMPβ1
Excerpt: as §4, §5, §3

MmIMPα:MmIMPβ1 = target: T3, MmIMPα:MmIMPβ1 (Mus musculus, UniProt P52293); assay: AlphaScreen inhibition of MmIMPα binding to MmIMPβ1
T3 construct: His; made in house
Excerpt: as §4, §5, §3

PfIMPα [2] = target: T1, PfIMPα; assay: Far-UV CD spectroscopy, α-helical content of PfIMPα with compound; assay type: binding; conditions: PfIMPα alone c. 63 % α-helical
Description: Previous analysis for MmIMPα using several biophysical approaches had established that the mechanism by which both ivermectin and GW5074 have an impact on NLS and IMPβ1 binding by MmIMPα is by direct binding to the ARM repeat domain of IMPα to perturb structural conformation. […] 63 % α-helical, compared to c. 70 % for MmIMPα (Figure 5b).
CD spectra were also analysed in the presence of increasing concentrations of ivermectin and GW5074, with both agents having a marked impact on the structure, especially at high concentrations (Figure 5a,b), consistent with the idea that both bind to the proteins directly to perturb structure. PfIMPα appeared to be particularly susceptible to both agents, with 30 µM GW5074 reducing α-helicity by more than a half (Figure 5a,b) to a residual value of 30%, which fell below 10% in the presence of 80 µM GW5074. […] 20% at 80 µM. The results, overall, indicate that both ivermectin and GW5074 can bind to and destabilise the structure of both PfIMPα and TgIMPα in analogous fashion to their known effects on mammalian IMPα, further underlining the conservation of structure and function between apicomplexan and mammalian IMPαs.
Figure 5 CD spectra for apicomplexan and mammalian IMPαs in the absence and presence of ivermectin and GW5074. CD spectra were collected for PfIMPα, TgIMPα, and MmIMPα in the absence or presence of 30 μM and 80 μM ivermectin and GW5074. (a) Spectra shown are from a single experiment, representative of two independent experiments for 30 μM concentration of ivermectin and GW5074. Note: θ is ellipticity. […]
CD spectroscopy was used to study the binding of ivermectin and GW5074 to PfIMPα, TgIMPα and MmIMPα, as previously described. CD spectra of the proteins at 0.1 mg/mL concentration were recorded from 200–260 nm using Jasco CD spectrometer (Jasco, Portland, OR, USA). CD spectra of the IMPαs were also measured in the presence of 30 µM and 80 µM concentrations of the ivermectin and GW5074 compounds. Percentage α-helix content was calculated from the ellipticity at 222 nm as described in [51]. […]

[3] = Plasmodium falciparum, 3D7, 72 h, 72 h, single typical experiment in duplicate, read-out: IC50, P. falciparum growth (Figure 6)
[4] = Plasmodium falciparum, 3D7, 72 h, asexual stages, 72 h, pooled mean ± SD (n = 3), read-out: IC50, inhibition of growth of P. falciparum parasites in culture
[5] = AlphaScreen, IMPα 5 nM, NLS 30 nM, pooled mean ± SEM (n = 3), read-out: IC50, inhibition of PfIMPα:TGS1 NLS binding
[6] = single experiment of a series of 3, read-out: IC50, PfIMPα:TGS1-NLS-GFP (Figure 3)
[7] = AlphaScreen, IMPα 5 nM, NLS 30 nM, pooled mean ± SEM (n = 3), read-out: IC50, inhibition of TgIMPα:SV40 T-ag NLS binding
[8] = single experiment of a series of 3, read-out: IC50, TgIMPα:T-ag-NLS-GFP (Figure 3)
[9] = AlphaScreen, IMPα 5 nM, NLS 30 nM, pooled mean ± SEM (n = 3), read-out: IC50, inhibition of ΔIBBmIMPα:SV40 T-ag NLS binding
[10] = single experiment of a series of 3, read-out: IC50, MmΔIBBIMPα:T-ag-NLS-GFP (Figure 3)
[11] = AlphaScreen, IMPβ 30 nM, IMPα 30 nM, pooled mean ± SEM (n = 3), read-out: IC50, inhibition of PfIMPα:MmIMPβ1 binding
[12] = single experiment of a series of three, read-out: IC50, PfIMPα:MmIMPβ1 (Figure 4)
[13] = AlphaScreen, IMPβ 30 nM, IMPα 30 nM, pooled mean ± SEM (n = 3), read-out: IC50, inhibition of TgIMPα:MmIMPβ1 binding
[14] = single experiment of a series of three, read-out: IC50, TgIMPα:MmIMPβ1 (Figure 4)
[15] = AlphaScreen, IMPβ 30 nM, IMPα 30 nM, pooled mean ± SEM (n = 3), read-out: IC50, inhibition of MmIMPα:MmIMPβ1 binding
[16] = single experiment of a series of three, read-out: IC50, MmIMPα:MmIMPβ1 (Figure 4)
[17] = asexual stages, 72 h, pooled mean ± SD (n = 3), read-out: IC50, inhibition of growth of P. falciparum parasites in culture

Compound	IC50 (P. falciparum 3D7 strain; [3]) [µM]	IC50 (P. falciparum 3D7 strain; [4]) [µM]	IC50 (PfIMPα [1]; [5]) [µM]	IC50 (PfIMPα [1]; [6]) [µM]	IC50 (TgIMPα; [7]) [µM]	IC50 (TgIMPα; [8]) [µM]	IC50 (MmΔIBBIMPα; [9]) [µM]	IC50 (MmΔIBBIMPα; [10]) [µM]	IC50 (PfIMPα:MmIMPβ1; [11]) [µM]	IC50 (PfIMPα:MmIMPβ1; [12]) [µM]	IC50 (TgIMPα:MmIMPβ1; [13]) [µM]	IC50 (TgIMPα:MmIMPβ1; [14]) [µM]	IC50 (MmIMPα:MmIMPβ1; [15])	IC50 (MmIMPα:MmIMPβ1; [16]) [µM]	residual α-helicity of PfIMPα (PfIMPα [2]; 80 µM compound)	IC50 (P. falciparum 3D7 strain; [17]) [µM]	also measured
C[C@H]1[C@@H](O)O[C@@H]2O[C@@]3(C)CC[C@H]4[C@H](C)CC[C@@H]1[C@@]24OO3 [DHA, dihydroartemisinin]	0.0007	0.001 ± 0.0005	–	–	–	–	–	–	–	–	–	–	–	–	–	–	IC50 (P. falciparum 3D7 strain; Plasmodium falciparum, 3D7, asexual stages, approximate value, read-out: IC50, P. falciparum growth): ~0.001 µM
O=C1Nc2ccc(I)cc2C1=Cc1cc(Br)c(O)c(Br)c1 [GW5074, 3-(3,5-dibromo-4-hydroxybenzyliden)-5-iodo-1,3-dihydroindol-2-one]	6.5	~6	6.5 ± 0.4	6	7.7 ± 1.9	5.4	4.9 ± 1.4	2.2	41 ± 1.5	39	11 ± 1.5	13	~22 µM and 22 µM	23	below 10%	5.5 ± 0.9	residual α-helicity of PfIMPα (PfIMPα [2]; 30 µM compound): 30%
ivermectin	–	–	5 ± 1.3	2.4	4.9 ± 0.2	5.2	6.2 ± 0.2	6.3	1.9 ± 0.2	1.5	6.9 ± 1.2	5.4	3.1 ± 0.5 µM	3.9	~20%	0.7 ± 0.1	IC50 (TgIMPα; AlphaScreen, IMPα 5 nM, NLS 30 nM, pooled mean ± SEM (n = 3), listed as ivermectin, read-out: IC50, inhibition of TgIMPα:SV40 T-ag NLS binding): 5 µM; IC50 (MmΔIBBIMPα; AlphaScreen, IMPα 5 nM, NLS 30 nM, pooled mean ± SEM (n = 3), listed as ivermectin, read-out: IC50, inhibition of ΔIBBmIMPα:SV40 T-ag NLS binding): 5 to 6 µM; IC50 (PfIMPα:MmIMPβ1; AlphaScreen, IMPβ 30 nM, IMPα 30 nM, pooled mean ± SEM (n = 3), listed as ivermectin, read-out: IC50, inhibition of PfIMPα:MmIMPβ1 binding): 2 to 7 µM; IC50 (TgIMPα:MmIMPβ1; AlphaScreen, IMPβ 30 nM, IMPα 30 nM, pooled mean ± SEM (n = 3), listed as ivermectin, read-out: IC50, inhibition of TgIMPα:MmIMPβ1 binding): 2 to 7 µM; IC50 (MmIMPα:MmIMPβ1; AlphaScreen, IMPβ 30 nM, IMPα 30 nM, pooled mean ± SEM (n = 3), listed as ivermectin, read-out: IC50, inhibition of MmIMPα:MmIMPβ1 binding): ~3 µM; IC50 (P. falciparum 3D7 strain; 72 h, single typical experiment in duplicate, read-out: IC50, P. falciparum growth (Figure 6)): 1 µM; IC50 (P. falciparum 3D7 strain; asexual stages, 72 h, pooled mean ± SD (n = 3), listed as ivermectin, read-out: IC50, inhibition of growth of P. falciparum parasites in culture): ~1 µM
